{
  "source": "BindingDB's records for doi:10.1016/j.bmcl.2016.03.041",
  "about": "(Eli Lilly, 2016)",
  "key": {"[1]": {"target": "T1, Prostaglandin E2 receptor EP3 subtype (Homo sapiens, UniProt P43115)", "T1 sequence (P43115 whole entry)": "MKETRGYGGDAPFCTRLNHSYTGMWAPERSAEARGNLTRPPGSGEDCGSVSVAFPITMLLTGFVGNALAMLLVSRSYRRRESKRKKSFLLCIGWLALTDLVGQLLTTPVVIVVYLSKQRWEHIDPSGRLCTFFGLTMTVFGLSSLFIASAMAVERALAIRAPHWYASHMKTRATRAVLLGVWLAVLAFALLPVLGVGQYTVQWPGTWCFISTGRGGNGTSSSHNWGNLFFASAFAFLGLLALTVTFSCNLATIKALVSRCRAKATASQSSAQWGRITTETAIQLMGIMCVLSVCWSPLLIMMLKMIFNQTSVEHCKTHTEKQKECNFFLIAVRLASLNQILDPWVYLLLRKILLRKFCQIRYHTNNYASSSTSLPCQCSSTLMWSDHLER", "test": "Binding affinity to human EP3"}, "[2]": {"target": "T2, Prostaglandin E2 receptor EP1 subtype (Homo sapiens, UniProt P34995)", "T2 sequence (P34995 whole entry)": "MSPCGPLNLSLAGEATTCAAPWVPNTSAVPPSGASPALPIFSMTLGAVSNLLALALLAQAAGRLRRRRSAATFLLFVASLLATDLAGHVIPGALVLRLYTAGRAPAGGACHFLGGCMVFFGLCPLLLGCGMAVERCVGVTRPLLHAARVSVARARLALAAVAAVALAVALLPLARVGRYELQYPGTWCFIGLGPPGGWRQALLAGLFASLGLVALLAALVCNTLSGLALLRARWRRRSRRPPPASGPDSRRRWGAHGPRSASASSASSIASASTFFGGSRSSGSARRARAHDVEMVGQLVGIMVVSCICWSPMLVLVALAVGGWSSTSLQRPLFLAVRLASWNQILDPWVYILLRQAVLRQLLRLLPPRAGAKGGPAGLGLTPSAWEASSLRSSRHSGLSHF", "test": "Binding affinity to human EP1"}, "[3]": {"target": "Prostaglandin E2 receptor EP2 subtype (Homo sapiens, UniProt P43116)", "sequence (P43116 whole entry)": "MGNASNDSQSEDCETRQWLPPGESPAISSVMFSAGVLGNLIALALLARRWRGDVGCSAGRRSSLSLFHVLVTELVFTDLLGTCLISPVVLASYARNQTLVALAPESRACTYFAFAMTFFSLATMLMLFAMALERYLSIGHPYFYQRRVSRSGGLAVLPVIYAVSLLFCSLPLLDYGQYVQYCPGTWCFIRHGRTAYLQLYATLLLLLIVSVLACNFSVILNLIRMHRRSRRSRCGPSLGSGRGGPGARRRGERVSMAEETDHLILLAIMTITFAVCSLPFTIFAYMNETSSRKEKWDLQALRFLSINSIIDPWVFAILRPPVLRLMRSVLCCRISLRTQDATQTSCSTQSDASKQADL", "test": "Binding affinity to human EP2"}},
  "data": [
    {"smiles": "Cc1ccc(N2CCC(O)CC2)nc1C(=O)Nc1c(C)cc(C(=O)O)cc1C", "note": "[US8933099, 1]", "values": [
      {"measurement": "Ki", "setting": "[1]", "value": "> 14", "unit": "µM"},
      {"measurement": "Ki", "setting": "[2]", "value": "> 17.5", "unit": "µM"},
      {"measurement": "Ki", "setting": "[3]", "value": "> 18.9", "unit": "µM"}
    ]}
  ]
}
